Assay results as given in article PMC4269550, “Lead Optimization of a Pyrazole Sulfonamide Series of Trypanosoma bruceiN-Myristoyltransferase Inhibitors: Identification and Evaluation of CNS Penetrant Compounds as Potential Treatments for Stage 2 Human African Trypanosomiasis” (Journal of Medicinal Chemistry, 2014).
“And” between values parts separate entries of the source, which are not always exact repeats. Equal entries are not always repeated.

Tests used:
[1] = Dose calculations for in vivo efficacy studies (brain concentration, brain free fraction)
Procedure: isofluorane. A blood sample was taken by cardiac puncture into two volumes of distilled water and the brain removed. After suitable sample preparation, the concentration of 1 in blood and brain was determined by UPLC/MS/MS using a Quattro Premier XE (Waters, USA). For each rat, the concentration in brain (ng/g) was divided by the concentration in blood (ng/mL) to give a brain:blood (B:B) ratio. The mean value obtained was quoted. A higher B:B ratio in animals pre-treated with GF120918 is indicative of a Pgp substrate.
Dose calculations for in vivo efficacy studies.
Property Compound 40 Compound 46 Compound 42
Oral Dose 50mg/kg 50mg/kg 50mg/kg

T. b. brucei GVR35 [2] = assay: Acute mouse model of T. b. brucei GVR35; assay type: in vivo
[3] = Maximum tolerated dose in mice; settings: mouse, in vivo, po
T. b. brucei S427 = assay: Stage 1 HAT mouse efficacy model, T. b. brucei S427; assay type: in vivo; settings: b.i.d. po, mouse
T. b. brucei GVR35 [4] = assay type: in vivo
Source text: NMRI mice used in the experiment were purchased from Harlan, UK. Mice were maintained under standard temperature/lighting conditions and given food and water ad libitum. The trypanosomes used in this study were of the cloned stabilate T. b. brucei GVR35, originally derived from trypanosomes isolated from a wildebeest in the Serengeti in 1966.[31] By 13 days postinfection, parasites entered the CNS.[32] If treatment is delayed until 21 days after infection, successful cure is therefore dependent on the ability of the compound to penetrate through the blood–brain barrier.[33] This model is widely used to evaluate the efficacy of new compounds for treatment against stage 2 HAT.[34]
Cryopreserved T. b. brucei GVR35 trypomastigotes were diluted to ∼5 × 10^4 cells/mL in 20 mM Hanks Balanced Salt Solution with glucose, and 0.2 mL of that dilution was used for infection (∼1 × 10^4 cells/mL per animal). All animals in the groups were intraperitoneally infected (ip) on day 0. After infection, parasitaemia was monitored by examination of tail blood smears. On day 21, post infection animals were randomly allocated to five mice per group. Infected animals were dosed with one of the following: diaminazene diaceturate (ip), 40 mg/kg once only as a HAT stage 1 control (early stage tyrypanocide to clear the parasites in the systemic circulation and in tissues other than CNS); Melasoprol (ip), 10 mg/kg once daily for 5 days as a positive control for HAT stage 2; […]. One group of five mice was an untreated control group. The dose solutions were prepared daily, using 5% DMSO:40% PEG400:55% Milli-Q water for compound (i.e., 40) and 10% DMSO:90% peanut oil for control drugs. To measure the response to treatment, parasitaemia was monitored twice per week until day 50. After day 50, the mice were checked only once per week until day 180 post treatment. Mice surviving to the end of experiment and blood smear aparasitaemic were considered cured.

[5] = tested on: T. b. brucei, BSF427, VSG118; assay: Cell viability assay, trypanosome; assay type: cell-based
Mouse pharmacokinetics = assay type: in vivo; settings: female, NMRI, whole blood, mouse
Procedure: Test compound was dosed as a bolus solution intravenously at 3 mg free base/kg (dose volume, 5 mL/kg; dose vehicle, saline or 5% DMSO; 40% PEG400; 55% saline) to female NMRI mice (n = 3) or dosed orally by gavage as a solution at 10 and/or 50 mg free base/kg (dose volume, 5 mL/kg; dose vehicle, 5% DMSO; 95% distilled water or 5% DMSO; 40% PEG400; 55% distilled water) to female NMRI mice (n = 3/dose level). Female NMRI mice were chosen as these represent the sex and strain used for the stage 1 and stage 2 HAT efficacy models. Blood samples were taken from each mouse at 2 (IV only), 5 (IV only), 15, and 30 min, 1, 2, 4, 6, 8, and 24 (po only) hours postdose and mixed with two volumes of distilled water. After suitable sample preparation, the concentration of test compound in blood was determined by UPLC-MS/MS using a Quattro Premier XE (Waters, USA). Pharmacokinetic parameters were derived from the mean blood concentration time curve using PKsolutions software v 2.0 (Summit Research Services, USA).

[6] = tested on: T. b. rhodesiense STIB900; assay: Stage 1 HAT mouse efficacy model, T. b. rhodesiense STIB900; assay type: in vivo; settings: b.i.d. po for 4 days
P-glycoprotein = assay: Rat brain penetration study +/- GF120918; settings: in vivo
[7] = Intrinsic clearance (Cli), mouse liver microsomes; assay type: in vitro ADME
Mouse brain penetration = assay type: in vivo; settings: female, NMRI, brain and blood, intravenous, 2 mg free base/kg, read-out: B:B (brain:blood ratio in mouse)
in vitro = assay type: cell-based, human; settings: human; read-out: MRC-5 EC50
[8] = In vitro metabolite identification with mouse microsomes; assay type: in vitro ADME
[9] = Rat hepatic portal vein study; assay type: in vivo; settings: male Sprague–Dawley rat, 3 mg/kg orally
Procedure: aIC50 values are shown as mean values of two or more determinations. bCompounds with Hill slopes […]
Rat hepatic portal vein study protocol.
10mL/kg; Dose vehicle: 5% DMSO; 40% PEG400; 55% distilled water) to male Sprague-Dawley rats (n=7). A single rat was placed under terminal anaesthesia with isofluorane at 15 and 30 minutes, 1, 2, 4, 6 and 8 hours post-dose and a blood sample taken from the hepatic portal vein and the heart, each mixed with two volumes of distilled water. After suitable sample preparation, the concentration of compound 33 in all blood samples was determined by UPLC/MS/MS using a Quattro Premier XE (Waters, USA). The hepatic portal vein and cardiac blood concentration time profile is presented in Figure S2. Pharmacokinetic parameters were derived from the blood concentration time profiles using PKsolutions software v 2.0 (Summit Research Services, USA).

## Cc1nn(C)c(C)c1N(C(F)F)S(=O)(=O)c1c(Cl)cc(CCCCC2CCN(C)CC2)cc1Cl [compound 46]
[1]; b.i.d., calculated to keep brain free concentration above T. brucei EC99
  oral dose needed to deliver stage 2 cures (Dose required): 15 mg/kg
[1]; mouse, in vivo
  fraction unbound: 0.01
[1]; oral dose 50mg/kg
  Conc in brain: 935 ng/g
  Free brain conc: 9.4 ng/g
T. b. brucei GVR35 [2]; b.i.d. po for 4 days
  minimum curative dose, acute model of T. b. brucei GVR35: 25 mg/kg
T. b. brucei GVR35 [2]; in vivo
  reduction in efficacy, T. b. brucei GVR35 compared to S427: ~4 fold
[3]
  MTD at 1 day: 50 mg/kg
T. b. brucei S427
  stage 1 HAT minimal curative dose, T. b. brucei S427: 6 mg/kg
T. b. brucei GVR35 [4]; dosed at the MTD b.i.d. po for 5 days, mice affected
  toxicity in infected mice in stage 2 model: 2/5
T. b. brucei GVR35 [4]; extended 50 mg/kg dose regimen
  toxicity in stage 2 model: significant toxicity
T. b. brucei GVR35 [4]; extended regimens: 25 mg/kg b.i.d. for 10 days, 50 mg/kg b.i.d. po for 8 days
  cures in stage 2 model: no cures
[5]; T. brucei
  ~EC99: ~2 nM and ~1.1 ng/mL
Mouse pharmacokinetics; oral dose 50mg/kg
  Cmax: 708 ng/mL

## Cc1nn(C)c(C)c1NS(=O)(=O)c1c(Cl)cc(-c2ccnc(N3CCNCC3)c2)cc1Cl [compound 1, 2,6-Dichloro-4-(2-piperazin-1-yl-pyridin-4-yl)-N-(1,3,5-trimethyl-1H-pyrazol-4-yl)-benzenesulfonamide]
[6]
  stage 1 HAT minimal curative dose, T. b. rhodesiense STIB900: 50 mg/kg
P-glycoprotein
  P-glycoprotein substrate: substrate for P-glycoprotein
[7]; Table S1, unit not given
  Cli (mouse): 0.6
[7]; mouse liver microsomes
  Cli (mouse): < 1.0 mL min^–1 g^–1
T. b. brucei S427
  stage 1 HAT minimal curative dose, T. b. brucei S427: 12.5 mg/kg
Mouse pharmacokinetics; 10 mg/kg po, read-out: AUC0–8 (converted)
  AUC(0-t): 6530 ng·h/mL

## Cc1nn(C)c(C)c1NS(=O)(=O)c1ccc(-c2ccnc(N3CCNCC3)c2)cc1 [compound 55]
Mouse brain penetration
  Kp: 0.1
In vitro
  EC50: 1400 nM
[5]; Trypanosoma brucei
  EC50: 4 nM

## Cc1nn(C)c(C)c1N(C)S(=O)(=O)c1c(Cl)cc(CCCN2CCN(C)CC2)cc1Cl [compound 33]
[7]; mouse liver microsomes
  Cli (mouse): 7.4 mL min^–1 g^–1
[7]; mouse microsomes
  Cli: 7.4 mL/min/g
[8]; 5µM, 15 min at 37°C, mouse liver microsomes
  % Parent remaining (t = 15 min): 6%
[8]; words
  sulfonamide N-dealkylation on incubation with mouse microsomes: N-dealkylated sulfonamide as the predominant metabolite
[9]
  hepatic extraction of the parent: almost total hepatic extraction
